# Experimental data published in patent publication US11492629B2, “Extra-chromosomal circular DNA-mediated engineering of plant traits” (Kansas State University Research Foundation, priority 2019, dated 2022).
# How the values were obtained:
# Type in all cases: in vivo, Amaranthus palmeri
# [1] = test system: progeny of GR A. palmeri plants (>80-100 EPSPS copies); experiment: Response to 1x glyphosate of progeny from randomly mated glyphosate-resistant (GR) plants grown without selection
# Text: (§1) To investigate the evolution of resistance to glyphosate in response to glyphosate selection pressure, we exposed GS plants (<20 EPSPS copies) to glyphosate for one generation to determine the EPSPS copy number and eccDNA variation in each generation and assess the possibility of evolution of resistance to continuous exposure to glyphosate via eccDNA containing EPSPS gene amplification. This process can be repeated for 6 to 8 generations. We also initiated experiments to examine the reversal of glyphosate resistance to susceptibility in the absence of glyphosate selection pressure by growing GR plants (>80-100 EPSPS copies) in the absence of glyphosate selection and generating progenies by random mating. This process can be repeated for 6 to 8 generations. A portion of progenies will be screened for susceptibility or resistance to glyphosate and determine the EPSPS gene copies and presence or absence of eccDNA in each generation.
# The progeny generated from random mating of GR plants (>80-100 EPSPS copies) were used in this study. The seed collected from two GR plants (allowed to mate randomly) were planted and seedlings were generated. Approximately 100 plants from each GR plant were grown in the greenhouse without exposure to glyphosate for seed production. Additionally, approximately 127 seedlings from each of the above GR plant were also grown separately and treated with 1× dose of glyphosate to assess their response. Leaf tissue from 40 plants each was also collected for only EPSPS copy number analysis.
# [2] = test system: GS A. palmeri plants (<20 EPSPS copies); experiment: Glyphosate selection of glyphosate-susceptible (GS) seedlings in greenhouse, plant survival
# Text: as §1
# Approximately 1,009 seedlings were grown in greenhouse and treated with 0.25, 0.5 and 1× glyphosate (1×: 840 g ae/ha). The survivors have been selected for seed production of G-2 seed. Leaf tissue from 40 plants were collected for copy number analysis before the treatment with glyphosate. Additionally, the leaf samples were also collected from plants (at least 5) that survived glyphosate application.
# [3] = test system: A. palmeri plants; experiment: Whole-plant glyphosate treatment of field-collected A. palmeri, injury versus untreated check; conditions: 868 g ae ha plus 2% (w/v) ammonium sulfate
# Text: A. palmeri plants used in this study were generated from seeds collected from a field near Manhattan, Kans., USA, where there was incident of lack of control of this population with glyphosate application in the previous season. This field was exposed to frequent applications of glyphosate in Roundup Ready soybean, grown in rotation. Seed of A. palmeri was randomly sampled from ten plants and pooled. Sixty seedlings from the above sample along with a known glyphosate-susceptible (GS) A. palmeri were germinated and seedlings were transplanted individually into Miracle-Gro potting mix (Marysville, Ohio) in 10 cm×10 cm×10 cm plastic pots and watered from top in a greenhouse (25/20° C. temperature; 15/9 h light day/night, supplemented with […] illumination using sodium vapor lamps). At least 20 plants (10 to 12 cm tall) were treated separately with field use rate [868 g ae ha^−1 plus 2% (w/v) ammonium sulfate] or twice the field use rate of glyphosate. […] Plant survival was assessed four weeks after treatment.
# In response to glyphosate treatment [868 g ae ha′ plus 2% (w/v) ammonium sulfate], plants showing injury levels of high (>80%) and low (<30%) in comparison to untreated check were grouped as GS and glyphosate-resistant (GR), respectively. […] DNA was quantified on Nanodrop Spectrophotometer.
# [4] = seedlings from plant GR1, 1x glyphosate, 127 plants treated
# [5] = seedlings from plant GR2, 1x glyphosate, 122 plants treated
# [6] = glyphosate rate 0.25X (1X: 840 g ae/ha), 160 treated plants
# [7] = glyphosate rate 0.5X (1X: 840 g ae/ha), 430 treated plants
# [8] = glyphosate rate 1X (1X: 840 g ae/ha), 419 treated plants
compound,measurement,setting,value
"O=C(O)CNCP(=O)(O)O [Glyphosate, N-(phosphonomethyl) glycine]",% survival,"[1]; seedlings from plant GR1, 1x glyphosate",68%
same,Alive,[1]; [4],86
same,Dead,[1]; [4],41
same,% survival,"[1]; seedlings from plant GR2, 1x glyphosate",72%
same,Alive,[1]; [5],88
same,Dead,[1]; [5],34
same,% survival,[2]; glyphosate rate 0.25X (1X: 840 g ae/ha),16%
same,Alive,[2]; [6],26
same,Dead,[2]; [6],134
same,% survival,[2]; glyphosate rate 0.5X (1X: 840 g ae/ha),4%
same,Alive,[2]; [7],18
same,Dead,[2]; [7],412
same,% survival,[2]; glyphosate rate 1X (1X: 840 g ae/ha),3%
same,Alive,[2]; [8],13
same,Dead,[2]; [8],406
same,injury level in comparison to untreated check,[3]; plants grouped as GR (low injury),< 30%
same,injury level in comparison to untreated check,[3]; plants grouped as GS (high injury),> 80%
